Results as given in US20220073536A1 (Rigel Pharmaceuticals, Inc., priority 2003, published 2022).
Counter-ions that a name gives are not always drawn. One block for each molecule: values may come before it.

Columns and labels:
[1] = system: cultured human mast cells (CHMC); test: CHMC low cell density IgE activation: tryptase assay; format: cell-based; details: IgE activation
Procedure, shortened: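 Tryptase release was read from supernatant with a fluorogenic substrate (30 min, room temperature) after anti-IgE challenge of cultured human mast cells (1000–1500 cells/well, low density) for 30 minutes at 37° C.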

[2] = system: cultured human mast cells (CHMC); test: CHMC low cell density ionomycin activation: tryptase assay; format: cell-based; details: read-out: LD Tryptase, CHMC, Iono, 3 pt
[3] = low cell density CHMC, tryptase release, 3 point, read-out: LD Tryptase, CHMC, IgE, 3 pt
[4] = low cell density CHMC, tryptase release, 8 point, read-out: LD Tryptase, CHMC, IgE, 8 pt
[5] = low cell density CHMC, tryptase release, 3 point
[6] = Homo sapiens, Mast cell, low cell density CHMC, tryptase release, 3 pt, read-out: LD Tryptase, CHMC, IgE, 3 pt
[7] = Homo sapiens, Mast cell, low cell density CHMC, tryptase release, 8 pt, read-out: LD Tryptase, CHMC, IgE, 8 pt
[8] = Homo sapiens, Mast cell, low cell density CHMC, tryptase release, 3 pt
[9] = low cell density CHMC, tryptase, 3 pt, read-out: LD Tryptase, CHMC, IgE, 3 pt
[10] = low cell density CHMC, tryptase, 8 pt, read-out: LD Tryptase, CHMC, IgE, 8 pt
[11] = low cell density CHMC, tryptase, 3 pt
[12] = Homo sapiens, Mast cell, low cell density CHMC, tryptase, 3 pt, read-out: LD Tryptase, CHMC, IgE, 3 pt
[13] = Homo sapiens, Mast cell, low cell density CHMC, tryptase, 3 pt
[14] = Homo sapiens, Mast cell, low cell density, 3 pt, read-out: LD Tryptase, CHMC, IgE, 3 pt
[15] = Homo sapiens, Mast cell, low cell density, 3 pt
[16] = Homo sapiens, Mast cell, low cell density CHMC, tryptase readout, 3 pt, read-out: LD Tryptase, CHMC, IgE, 3 pt
[17] = Homo sapiens, Mast cell, low cell density CHMC, tryptase readout, 8 pt, read-out: LD Tryptase, CHMC, IgE, 8 pt
[18] = Homo sapiens, Mast cell, low cell density CHMC, tryptase readout, 3 pt
[19] = Homo sapiens, Mast cell, low cell density CHMC, tryptase, 8 pt, read-out: LD Tryptase, CHMC, IgE, 8 pt

IC50 [1, 3]: < 10 µM | IC50 [1, 4]: < 10 µM | IC50 [2, 5]: < 10 µM
SMILES: COC(=O)COc1ccc(Nc2nc(Nc3cc(C)c(Cl)c(C)c3)ncc2F)cc1Cl [Compound 617, N2-(4-Chloro-3,5-dimethylphenyl)-N4-[3-chloro-4-(methoxycarbonyl)methyleneoxyphenyl]-5-fluoro-2,4-pyrimidinediamine]

IC50 [1, 3]: < 10 µM | IC50 [1, 4]: < 10 µM | IC50 [2, 5]: > 10 µM
SMILES: COC(=O)Cn1ccc2cc(Nc3ncc(F)c(Nc4ccc(OC)c(Cl)c4)n3)ccc21 [Compound 646, N4-(3-Chloro-4-methoxyphenyl)-5-fluoro-N2-[1-(methoxycarbonylmethylene)indol-5-yl]-2,4-pyrimidinediamine]

IC50 [1, 3]: < 10 µM | IC50 [2, 5]: > 10 µM
SMILES: Fc1cnc(Nc2cccc(-c3ncco3)c2)nc1Nc1ccc2c(c1)OC(F)(F)C(F)(F)O2 [Compound 633]

IC50 [1, 6]: < 10 µM | IC50 [1, 7]: < 10 µM | IC50 [2, 8]: > 10 µM
SMILES: CC1(C)Oc2ccc(Nc3nc(Nc4ccc5[nH]c(C(F)(F)F)nc5c4)ncc3F)cc2NC1=O [Compound 802, N4-(2,2-Dimethyl-3-oxo-4H-benz[1,4]oxazin-6-yl)-5-fluoro-N2-(2-trifluoromethyl-1H-benzimidazol-5-yl)-2,4-pyrimidinediamine]

IC50 ([1]; Homo sapiens, Mast cell, low cell density CHMC, tryptase release, 3 point, read-out: LD Tryptase, CHMC, IgE, 3 pt): < 10 µM | IC50 ([2]; Homo sapiens, Mast cell, low cell density CHMC, tryptase release, 3 point): > 10 µM
SMILES: Cc1cc(N(C)c2nc(Nc3ccc(-c4cnco4)cc3)ncc2F)cc(C)c1Cl [Compound 598]

SMILES: Cn1ncc2ccc(Nc3ncc(F)c(Nc4ccc5c(n4)NC(=O)C(C)(C)O5)n3)cc21 [Compound 1057, N4-(2,2-Dimethyl-3-oxo-4H-5-pyrid[1,4]oxazin-6-yl)-5-fluoro-N2-[1-methylindazol-6-yl]-2,4-pyrimidinediamine p-Toluenesulfonic Acid Salt]
IC50 ([1]; low cell density CHMC, tryptase readout, 3 pt, read-out: LD Tryptase, CHMC, IgE, 3 pt): < 10 µM | IC50 ([1]; low cell density CHMC, tryptase readout, 8 pt, read-out: LD Tryptase, CHMC, IgE, 8 pt): < 10 µM | IC50 ([2]; low cell density CHMC, tryptase readout, 3 pt): > 10 µM

IC50 [1, 9]: < 10 µM | IC50 [1, 10]: < 10 µM | IC50 [2, 11]: > 10 µM
SMILES: CNC(=O)COc1cccc(Nc2ncc(F)c(N(C)c3ccc4c(c3)OCCO4)n2)c1 [Compound 385, N4-(3,4-Ethylenedioxyphenyl)-5-fluoro-N4-methyl-N2-[3-(N-methylamino)carbonylmethyleneoxyphenyl]-2,4-pyrimidinediamine]

IC50 [1, 12]: < 10 µM | IC50 [2, 13]: > 10 µM
SMILES: CC(=O)N1CCN(c2cccc(Nc3ncc(F)c(N(C)C4CCC4)n3)c2)CC1 [Compound 1150, N2-[3-(4-Acetylpiperazino)phenyl]-N4-cyclobutyl-5-fluoro-N4-methyl-2,4-pyrimidinediamine]

IC50 [1, 10]: < 10 µM | IC50 [2, 11]: > 10 µM
SMILES: Fc1cnc(Nc2ccc(N3CCOCC3)cc2)nc1Nc1ccc2c(n1)NCCO2 [Compound 1128, N4-(3,4-Dihydro-2H,4H-5-pyrid[1,4]oxazin-6-yl)-5-fluoro-N2-(4-morpholinophenyl)-2,4-pyrimidinediamine]

IC50 [1, 12]: < 10 µM | IC50 [2, 13]: > 10 µM
SMILES: COC(=O)CN(c1ccc2c(c1)OCCO2)c1nc(Nc2ccc(-c3ncco3)cc2)ncc1F [Compound 445]

IC50 [1, 14]: < 10 µM | IC50 ([1]; Homo sapiens, Mast cell, low cell density, 8 pt, read-out: LD Tryptase, CHMC, IgE, 8 pt): < 10 µM | IC50 [2, 15]: > 10 µM
SMILES: CNC(=O)c1ccc(Nc2ncc(F)c(Nc3ccc(OC)c(Cl)c3)n2)cc1Cl [Compound 466]

IC50 [1, 3]: < 10 µM | IC50 [1, 4]: < 10 µM | IC50 [2, 5]: > 10 µM
SMILES: CNC(=O)COc1ccc(Nc2nc(Nc3ccc4c(ccn4CC(=O)OC)c3)ncc2F)cc1Cl [Compound 644, N4-[3-Chloro-4-(N-methylamino)carbonylmethyleneoxyphenyl]-5-fluoro-N2-[1-(methoxycarbonylmethylene)indol-5-yl]-2,4-pyrimidinediamine]

IC50 [1, 9]: < 10 µM | IC50 [1, 10]: < 10 µM | IC50 [2, 11]: > 10 µM
SMILES: COc1cc(Nc2ncc(F)c(Nc3ccc(OC(C)(C)C(=O)O)c(Cl)c3)n2)cc(OC)c1 [Compound 409, N4-[3-Chloro-4-(hydroxycarbonyl-1,1-dimethylmethyleneoxy)phenyl]-N2-(3,5-dimethoxyphenyl)-5-fluoro-2,4-pyrimidinediamine]

IC50 [1, 6]: < 10 µM | IC50 [1, 7]: < 10 µM | IC50 [2, 8]: > 10 µM
SMILES: C[C@@H]1Oc2ccc(Nc3nc(Nc4cccc(-c5cnco5)c4)ncc3F)cc2NC1=O [Compound 247]

IC50 [1, 12]: < 10 µM | IC50 [2, 13]: > 10 µM
SMILES: COc1ccc(N(C)c2nc(Nc3cc(C)cc(C)c3)ncc2F)cc1OC [Compound 433]

IC50 [1, 3]: < 10 µM | IC50 [1, 4]: < 10 µM | IC50 [2, 5]: > 10 µM
SMILES: CNC(=O)COc1ccc(Nc2nc(Nc3ccc4cc[nH]c4c3)ncc2F)cc1Cl [Compound 605, N4-[3-Chloro-4-(N-methylamino)carbonylmethyleneoxyphenyl]-5-fluoro-N2-(indol-6-yl)-2,4-pyrimidinediamine]

IC50 [1, 16]: < 10 µM | IC50 [1, 17]: < 10 µM | IC50 [2, 18]: > 10 µM
SMILES: COC(=O)N1CCN(c2ccc(Nc3ncc(F)c(Nc4cc(C(C)(C)C)[nH]n4)n3)cc2)CC1 [Compound 1103]

IC50 [1, 12]: < 10 µM | IC50 [1, 19]: < 10 µM | IC50 [2, 13]: > 10 µM
SMILES: CCn1ncc2ccc(Nc3ncc(F)c(Nc4ccc(OC)c(Cl)c4)n3)cc21 [Compound 698, N4-(3-Chloro-4-methoxyphenyl)-N2-(1-ethylindazol-6-yl)-5-fluoro-2,4-pyrimidinediamine]

IC50 [1, 12]: < 10 µM | IC50 [2, 13]: > 10 µM
SMILES: CCOC(=O)N1CCN(c2cccc(Nc3ncc(F)c(NC4CCCCC4)n3)c2)CC1 [Compound 1169, N4-Cyclohexyl-N2-[3-(4-ethoxycarbonylpiperazino)phenyl]-5-fluoro-2,4-pyrimidinediamine]

IC50 [1, 16]: < 10 µM | IC50 [1, 17]: < 10 µM | IC50 [2, 18]: > 10 µM
SMILES: CC(=O)N1CCN(c2ccc(Nc3ncc(F)c(Nc4cc(C(C)(C)C)[nH]n4)n3)cc2)CC1 [Compound 1102]

IC50 [1, 3]: < 10 µM | IC50 [2, 5]: > 10 µM
SMILES: CNC(=O)COc1cccc(Nc2ncc(F)c(N(C)c3ccc(OC(C)C)nc3)n2)c1 [Compound 582, 5-Fluoro-N4-(2-isopropoxypyrid-5-yl)-N4-methyl-N2-[3-(N-methylamino)carbonylmethyleneoxyphenyl]-2,4-pyrimidinediamine]

IC50 [1, 14]: > 10 µM | IC50 [2, 15]: > 10 µM
SMILES: C=CCNc1ncc(F)c(N(C)c2ccc3c(c2)OCCO3)n1 [Compound 506, N2-Allyl-N4-(3,4-ethylenedioxyphenyl)-5-fluoro-N4-methyl-2,4-pyrimidinediamine]

IC50 [1, 6]: < 10 µM | IC50 [1, 7]: < 10 µM | IC50 [2, 8]: > 10 µM
SMILES: COCCCn1ncc2cc(Nc3ncc(F)c(Nc4ccc(Cl)c(Cl)c4)n3)ccc21 [Compound 793, N4-(3,4-Dichlorophenyl)-5-fluoro-N2-[1-(3-methoxypropyl)indazol-5-yl]-2,4-pyrimidinediamine]

IC50 [1, 16]: < 10 µM | IC50 [2, 18]: > 10 µM
SMILES: Cc1cc(Nc2ncc(F)c(Nc3ccc4c(c3)N(C)C(=O)C(C)(C)O4)n2)cc(Cl)c1OC1CCCC1 [Compound 1034, N2-(3-Chloro-4-cyclopentyloxy-5-methylphenyl)-5-fluoro-N4-(3-oxo-2,2,4-trimethyl-benz[1,4]oxazin-6-yl)-2,4-pyrimidinediamine]

IC50 [1, 12]: < 10 µM | IC50 [1, 19]: < 10 µM | IC50 [2, 13]: > 10 µM
SMILES: COc1cc(Nc2ncc(F)c(Nc3ccc(OC)c(OC)c3)n2)cc(OC)c1 [Compound 414, N2-(3,5-Dimethoxyphenyl)-N4-(3,4-dimethoxyphenyl)-5-fluoro-2,4-pyrimidinediamine]

IC50 [1, 12]: < 10 µM | IC50 [1, 19]: < 10 µM | IC50 [2, 13]: > 10 µM
SMILES: C[C@H]1Oc2ccc(Nc3nc(Nc4cccc(-c5ncco5)c4)ncc3F)cc2NC1=O [Compound 1283]

IC50 ([1]; low cell density CHMC, tryptase release, 3 pt, read-out: LD Tryptase, CHMC, IgE, 3 pt): < 10 µM | IC50 ([1]; low cell density CHMC, tryptase release, 8 pt, read-out: LD Tryptase, CHMC, IgE, 8 pt): < 10 µM | IC50 ([2]; low cell density CHMC, tryptase release, 3 pt): > 10 µM
SMILES: CC1(C)COc2ccc(Nc3nc(Nc4cccc(-c5cnco5)c4)ncc3F)cc2N1 [Compound 233, N4-(3,4-Dihydro-3,3-dimethyl-2H,4H-benz[1,4]oxazin-6-yl)-5-fluoro-N2-[3-(oxazol-5-yl)phenyl]-2,4-pyrimidinediamine]

IC50 [1, 12]: < 10 µM | IC50 [2, 13]: > 10 µM
SMILES: CCOC(=O)N1CCN(c2ccc(Nc3ncc(F)c(NC4CCC4)n3)cc2)CC1 [Compound 1111, N4-Cyclobutyl-N2-[4-(4-ethoxycarbonylpiperazino)phenyl]-5-fluoro-2,4-pyrimidinediamine]
